Consider two compounds from patent EP3067058A1, “BIOLOGICAL COMPOSITION BASED ON ENGINEERED LACTOBACILLUS PARACASEI SUBSP. PARACASEI F19 FOR THE BIOSYNTHESIS OF CANNABINOIDS” (Farmagens Health Care Srl, priority 2015, dated 2016).

The conditions of series [1]: smoking; cited from earlier work.
Another series relates to Bax. Nature of the series: Immunoblot of pro-apoptotic Bax protein in Caco-2 cells. Format: cell-based, human. The settings on record: 96 hrs incubation; 10^11 cfu; caproic acid 0.003-0.3µg/ml. How it is done: Caco-2 cell colture. Caco-2 cells were cultured in Dulbecco's Modified Eagle's Medium (DMEM) supplemented with 5% Foetal Bovine Serum (FBS), 2 mM glutamine, 100 U/mL penicillin, 100 µg/mL streptomycin at 37 °C in 5% CO2/95% air. At confluence cells were washed three times with Phosphate Buffer Saline (PBS), detached with tripsyn/EDTA, plated in 10 cm diameter Petri dishes and left to adhere for 24 hrs. Thereafter, DMEM was replaced with fresh medium and cells were treated for 96 hrs with 10^11 cfu LP OAC-CAS-OLS-CsPT1^+, with caproic acid 0.003-0.3µg/ml or LP empty vector with caproic acid 0.003-0.3µg/ml.
The pro-apoptotic effect in Caco-2 cell cultured in the presence of LP OAC-CAS-OLS-CsPT1+ or LP empty vector was tested by immunoblot analysis of pro-apoptotic proteins level (Bax), as well as by rate of cells proliferation (MTT).
Immunoblot of Bax protein. Briefly, after homogenization in ice-cold hypotonic lysis buffer, protein concentration was determined using Bio-Rad protein assay kit (Bio-Rad, Milan, Italy). Analysis of Bax and β-actin protein expression was performed on total protein fractions of homogenates. Equivalent amounts (30 µg) of each homogenate underwent electrophoresis through a polyacrilamide minigel. […] Protein bands were then scanned and densitometrically analyzed with a GS-700 imaging densitometer.
Background: A western blot detects proteins with antibodies after separation by electrophoresis.

For a further series, the system named is Caco-2 cells. Description: MTT proliferation assay in human colon carcinoma cells. Format: cell-based. Particulars: 96 hrs incubation; 10^11 cfu; caproic acid 0.003-0.3µg/ml. As to the method:
To confirm the chemo-preventive action of cannabidiol in the experimental conditions, a study on the putative pro-apoptotic and anticancer activity exerted by LP OAC-CAS-OLS-CsPT1+ probiotic was tested in vitro in human colon carcinoma cells. CBD release in human colon carcinoma cell line was measured at the different time points.
Caco-2 cell colture. Caco-2 cells were cultured in Dulbecco's Modified Eagle's Medium (DMEM) supplemented with 5% Foetal Bovine Serum (FBS), 2 mM glutamine, 100 U/mL penicillin, 100 µg/mL streptomycin at 37 °C in 5% CO2/95% air. At confluence cells were washed three times with Phosphate Buffer Saline (PBS), detached with tripsyn/EDTA, plated in 10 cm diameter Petri dishes and left to adhere for 24 hrs. […]
MTT Proliferation and survival assays. Cell proliferation was evaluated by 3-[4,5-dimethylthiazol-2-yl]-2,5 diphenyltetrazolium bromide (MTT) assay. […] After this time point, the cells were lysed and the dark blue crystals solubilized with 125 µl of a solution containing 50% (N,N-dimethylformamide, 20% (w/v) sodium dodecylsulphate (pH 4.5). The optical density (OD) of each well was measured with a Perkin-Elmer (Waltham, MA, USA) microplate spectrophotometer equipped with a 620 nm filter. Cell viability in response to pentamidine was calculated as % cell viability (OD treated/OC control) X 100.

`CCCCCc1cc(O)c2c(c1)OC(C)(C)[C@@H]1CCC(C)=C[C@@H]21` [Δ^9-THC, (-)-trans-Δ9-tetrahydrocannabinol]: the “Δ^9-THC content in a cannabis cigarette that is absorbed” value in series [1] is “about 20%”.

On to `CCCCCC(=O)O` [caproic acid], for which the “expression level of the pro-apoptotic protein Bax-2” value in the series on Bax is “no significant effect”. The “cell proliferation (MTT)” value in the series on Caco-2 cells is “no significant effect”.
